Data taken from US20240091200A1 (Lilac Therapeutics, Inc., priority 2019, published 2024).
Where “and” joins values, the source holds several entries; their conditions need not be identical. Equal entries are not always repeated. Where two headings read alike, the source gives them in different places.

Experiments:
[1] = Plasma pharmacokinetics of Example 68 after IV infusion or PO dose in SD rats; format: in vivo
[2] = Plasma pharmacokinetics after an oral dose of Example 2 in SD rats; format: in vivo, Sprague Dawley rats; conditions: for bioavailability: oral
Protocol: An oral dose of Example 2 was formulated in a sterile solution of 50% water, 37.5% PEG 300, and 12.5% DMSO at 1.0 mg/mL. The dosing group consisted of three fasted male Sprague Dawley rats. At dosing, the animals weighed between 0.26 and 0.27 kg. For the oral dosing group, the formulated dose was administered via oral gavage at 5.0 mL/kg for a dose of 5.0 mg/kg. Non-compartmental pharmacokinetic analysis was performed on the plasma concentration-time data.

[3] = 30-minute IV infusion 1 mg/kg, individual rats
[4] = 30-minute IV infusion 1 mg/kg, mean n=3
[5] = PO dose 5 mg/kg, individual rats
[6] = SD, rat, plasma, po, 5 mg/kg, PO dose 5 mg/kg, mean n=3
[7] = Sprague-Dawley (SD), rat, plasma, iv, 1 mg/kg, 30-minute IV infusion 1 mg/kg, individual rats
[8] = Sprague-Dawley (SD), rat, plasma, iv, 1 mg/kg, 30-minute IV infusion 1 mg/kg, mean n=3
[9] = Example 68 in plasma, PO dose of Example 2 5 mg/kg, individual rats
[10] = male, Sprague Dawley, rat, plasma, po, 5 mg/kg, Example 68 in plasma, PO dose of Example 2 5 mg/kg, individual rats
[11] = male, Sprague Dawley, rat, plasma, po, 5 mg/kg, Example 68 in plasma, PO dose of Example 2 5 mg/kg, mean n=3

For NC(=O)c1ccc(-c2ccc(-c3nn[nH]c3C(=O)O)cc2)cc1 [Example 68, 4-(4carbamoyl-[1,1biphenyl]-4-yl)-1H-1,2,3-triazole-5-carboxylic acid], the AUCinf [1, 3] was 3.11 µM·h and 3.46 µM·h, the AUClast [1, 3] was 3.09 µM·h and 3.45 µM·h and the “CL (apparent systemic clearance)” value [1, 3] was 17.3 mL/min/kg and 15.5 mL/min/kg. The Cmax [1, 3] was 5100 nM and 5350 nM, the “MRT (mean residence time)” value [1, 3] was 29.4 min and 26.4 min and the “Vss (volume of distribution)” value [1, 3] was 0.51 L/kg. For the same compound, the “t1/2 (terminal)” value [1, 3] was 64.8 min and 57.6 min, the “CL (apparent systemic clearance)” value [1, 4] was 15.8 mL/min/kg and the “t1/2 (terminal)” value [1, 4] was 61.2 min. For the same compound, the AUCinf [1, 5] was 0.383 µM·h and 0.479 µM·h, the AUClast [1, 5] was 0.334 µM·h and 0.396 µM·h and the Cmax [1, 5] was 90.4 nM and 65 nM and 182 nM. The “F (oral bioavailability)” value [1, 5] was 1.9%, the Tmax [1, 5] was 0.25 hr (2×) and 2.00 hr and the AUC(0-inf) ([1]; SD, rat, plasma, po, 5 mg/kg, PO dose 5 mg/kg, individual rats) was 0.485 µM·h. It also gave an AUC(0-inf) [1, 6] of 0.449 µM·h, a Cmax [1, 6] of 113 nM and an AUC(0-inf) [1, 7] of 3.69 µM·h. The AUC(0-t) [1, 7] was 3.68 µM·h, the Cmax [1, 7] was 4940 nM and the clearance ([1]; Sprague-Dawley (SD), rat, plasma, iv, 1 mg/kg, 30-minute IV infusion 1 mg/kg, individual rats, read-out: CL (apparent systemic clearance) (converted)) was 14.5 mL/min/kg. It also gave an MRT ([1]; Sprague-Dawley (SD), rat, plasma, iv, 1 mg/kg, 30-minute IV infusion 1 mg/kg, individual rats, read-out: MRT (mean residence time)) of 28.2 min, a Vd ([1]; Sprague-Dawley (SD), rat, plasma, iv, 1 mg/kg, 30-minute IV infusion 1 mg/kg, individual rats, read-out: Vss (volume of distribution)) of 0.41 L/kg and a half-life ([1]; Sprague-Dawley (SD), rat, plasma, iv, 1 mg/kg, 30-minute IV infusion 1 mg/kg, individual rats, read-out: t1/2 (terminal) (converted)) of 60.6 min. The AUC(0-inf) [1, 8] was 3.42 µM·h, the AUC(0-t) [1, 8] was 3.4 µM·h and the Cmax [1, 8] was 5130 nM. The clearance ([1]; Sprague-Dawley (SD), rat, plasma, iv, 1 mg/kg, 30-minute IV infusion 1 mg/kg, mean n=3, read-out: CL (apparent systemic clearance) (converted)) was 15.8 mL/min/kg, the MRT ([1]; Sprague-Dawley (SD), rat, plasma, iv, 1 mg/kg, 30-minute IV infusion 1 mg/kg, mean n=3, read-out: MRT (mean residence time)) was 28.2 ± 1.2 min and the Vd ([1]; Sprague-Dawley (SD), rat, plasma, iv, 1 mg/kg, 30-minute IV infusion 1 mg/kg, mean n=3, read-out: Vss (volume of distribution)) was 0.44 ± 0.06 L/kg. It also gave a half-life ([1]; Sprague-Dawley (SD), rat, plasma, iv, 1 mg/kg, 30-minute IV infusion 1 mg/kg, mean n=3, read-out: t1/2 (terminal) (converted)) of 61.2 ± 3.6 min, an AUC(0-t) ([1]; Sprague-Dawley (SD), rat, plasma, po, 5 mg/kg, PO dose 5 mg/kg, individual rats) of 0.429 µM·h and a bioavailability ([1]; Sprague-Dawley (SD), rat, plasma, po, 5 mg/kg, PO dose 5 mg/kg, individual rats, read-out: F (oral bioavailability)) of 2.5%. The AUC(0-t) ([1]; Sprague-Dawley (SD), rat, plasma, po, 5 mg/kg, PO dose 5 mg/kg, mean n=3) was 0.386 µM·h, the bioavailability ([1]; Sprague-Dawley (SD), rat, plasma, po, 5 mg/kg, PO dose 5 mg/kg, mean n=3, read-out: F (oral bioavailability)) was 2.3% and the Tmax ([1]; Sprague-Dawley (SD), rat, plasma, po, 5 mg/kg, PO dose 5 mg/kg, mean n=3, read-out: Tmax) was 49.8 min. For the same compound, the “F (bioavailability)” value ([2]; Example 68 after PO Example 2 5 mg/kg, based on IV exposure of Example 68 at 1.0 mg/kg, individual rats) was 20.2% and 17.4%, the AUC0-24 h [2, 9] was 3.36 µM·h and 2.93 µM·h and the AUCinf [2, 9] was 3.45 µM·h and 2.98 µM·h. The Cmax [2, 9] was 2220 nM and 2450 nM, the Tmax [2, 9] was 15 min and the AUCinf ([2]; Example 68 in plasma, PO dose of Example 2 5 mg/kg, mean n=3) was 3.25 µM·h. For the same compound, the bioavailability ([2]; male, Sprague Dawley, rat, plasma, 5 mg/kg, Example 68 after PO Example 2 5 mg/kg, based on IV exposure of Example 68 at 1.0 mg/kg, individual rats, read-out: F (bioavailability)) was 19.4%, the bioavailability ([2]; male, Sprague Dawley, rat, plasma, 5 mg/kg, Example 68 after PO Example 2 5 mg/kg, based on IV exposure of Example 68 at 1.0 mg/kg, mean n=3, read-out: F (bioavailability)) was 19 ± 1.4% and the AUC(0-inf) [2, 10] was 3.32 µM·h. The Cmax [2, 10] was 2120 nM, the AUC(0-t) ([2]; male, Sprague Dawley, rat, plasma, po, 5 mg/kg, Example 68 in plasma, PO dose of Example 2 5 mg/kg, individual rats, read-out: AUC0-24 h) was 3.15 µM·h and the Tmax ([2]; male, Sprague Dawley, rat, plasma, po, 5 mg/kg, Example 68 in plasma, PO dose of Example 2 5 mg/kg, individual rats, read-out: Tmax) was 30 min. For the same compound, the AUC(0-inf) [2, 11] was 3.25 ± 0.242 µM·h, the Cmax [2, 11] was 2270 ± 171 nM and the AUC(0-t) ([2]; male, Sprague Dawley, rat, plasma, po, 5 mg/kg, Example 68 in plasma, PO dose of Example 2 5 mg/kg, mean n=3, read-out: AUC0-24 h) was 3.14 µM·h. The Tmax ([2]; male, Sprague Dawley, rat, plasma, po, 5 mg/kg, Example 68 in plasma, PO dose of Example 2 5 mg/kg, mean n=3, read-out: Tmax) was 25.2 min.
